# Measured values: patent publication US11912723B2, “KRAS modulators and uses thereof” (Quanta Therapeutics, Inc., priority 2022, dated 2024)
# Target: T1, KRAS G12D/RAF1 (Homo sapiens, UniProt P01116, G12D)
# T1 construct: KRAS (1-169) proteins were expressed in E. coli at 18° C; His6-MBP (N, cleaved yes); made in house; host or cells: E. coli
# Experiment: Protein-protein interaction (PPI) HTRF assay KRAS G12D/RAF1
# Type: binding
# Conditions: KRAS G12D/RAF1, GppNHp-loaded KRAS; 30 minutes pre-incubation
# Procedure, shortened: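 Biotinylated GppNHp-loaded RAS (1-169) on streptavidin-d2 acceptor and His-RAF1 RBD (52-131) on anti-His Tb donor, each prepared at 16 nM in pH 7.5 Tris buffer. Compound preincubated with RAS 30 min, then RAF1 added for 1 h at room temperature. IC50 from HTRF 665/615 ratio, normalized to no compound (0%) and untagged RAF1 (100%).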
# T1 sequence (P01116 1-169 isoform P01116-2 G12D): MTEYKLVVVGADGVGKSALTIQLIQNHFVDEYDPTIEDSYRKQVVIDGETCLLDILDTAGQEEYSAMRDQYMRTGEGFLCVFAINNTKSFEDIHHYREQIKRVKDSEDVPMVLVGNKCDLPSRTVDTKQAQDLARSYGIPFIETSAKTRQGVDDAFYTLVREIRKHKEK
row,SMILES,IC50
1,"Cc1nc(-c2nn3c(c2Cl)CN(c2nc(OC[C@@]45CCCN4C[C@H](F)C5)nc4c2CN(C)[C@@]2(CCCc5ccccc52)C4)CCC3)no1 [Compound 87, 3-[3-chloro-5-[(7S)-2-[[(2R,8S)-2-fluoro-1,2,3,5,6,7-hexahydropyrrolizin-8-yl]methoxy]-6-methyl-spiro[5,8-dihydropyrido[4,3-d]pyrimidine-7,1′-tetralin]-4-yl]-4,6,7,8-tetrahydropyrazolo[1,5-a][1,4]diazepin-2-yl]-5-methyl-1,2,4-oxadiazole]",10 to 100 µM
2,"CN(C)C(=O)c1nn2c(c1Cl)CN(c1nc(OC[C@@]34CCCN3C[C@H](F)C4)nc3c1CN(C)[C@@]1(CCc4cccc(F)c41)C3)CCC2 [Compound 63, 3-chloro-5-[(7S)-7′-fluoro-2-[[(2R,8S)-2-fluoro-1,2,3,5,6,7-hexahydropyrrolizin-8-yl]methoxy]-6-methyl-spiro[5,8-dihydropyrido[4,3-d]pyrimidine-7,1′-indane]-4-yl]-N,N-dimethyl-4,6,7,8-tetrahydropyrazolo[1,5-a][1,4]diazepine-2-carboxamide]",10 to 100 µM
3,"O=C1NC(=O)C2(CCCN(c3nc(OC[C@@]45CCCN4C[C@H](F)C5)nc4c3COC3(CCc5c(Cl)cccc53)C4)C2)N1 (single isomer, unassigned) [Compound 24A, (5*)-9-[(7*)-4′-chloro-2-[[(2R,8S)-2-fluoro-1,2,3,5,6,7-hexahydropyrrolizin-8-yl]methoxy]spiro[5,8-dihydropyrano[4,3-d]pyrimidine-7,1′-indane]-4-yl]-1,3,9-triazaspiro[4.5]decane-2,4-dione]",10 to 100 µM
4,"CN(C)C(=O)c1cc2n(n1)CCCN(c1nc(OC[C@@]34CCCN3C[C@H](F)C4)nc3c1CN(C)[C@@]1(CCCc4ccc(O)cc41)C3)C2 [Compound 39A, 5-[(7S)-2-[[(2R,8S)-2-fluoro-1,2,3,5,6,7-hexahydropyrrolizin-8-yl]methoxy]-7′-hydroxy-6-methyl-spiro[5,8-dihydropyrido[4,3-d]pyrimidine-7,1′-tetralin]-4-yl]-N,N-dimethyl-4,6,7,8-tetrahydropyrazolo[1,5-a][1,4]diazepine-2-carboxamide]",10 to 100 µM
5,"OC1CCCN(c2nc(OC[C@@]34CCCN3C[C@H](F)C4)nc3c2COC2(CCCc4ccc(Br)cc42)C3)CC1 (stereo partly drawn) [Compound 4, 1-[7′-bromo-2-[[(2R,8S)-2-fluoro-1,2,3,5,6,7-hexahydropyrrolizin-8-yl]methoxy]spiro[5,8-dihydropyrano[4,3-d]pyrimidine-7,1′-tetralin]-4-yl]azepan-4-ol]",> 100 µM
6,"C=C1CN2CCCC2(COc2nc3c(c(N4CCCn5nc(C(=O)N(C)C)c(Cl)c5C4)n2)CO[C@@]2(CCc4c(Cl)cccc42)C3)C1 (mixture of isomers) [Compound 54, 3-chloro-N,N-dimethyl-5-[rac-(7S)-4′-chloro-2-[(6-methylene-2,3,5,7-tetrahydro-1H-pyrrolizin-8-yl)methoxy]spiro[5,8-dihydropyrano[4,3-d]pyrimidine-7,1′-indane]-4-yl]-4,6,7,8-tetrahydropyrazolo[1,5-a][1,4]diazepine-2-carboxamide]",10 to 100 µM
7,"CN1CCN(C(=O)c2nn3c(c2Cl)CN(c2nc(OC[C@@]45CCCN4C[C@H](F)C5)nc4c2CO[C@@]2(CCc5c(Cl)cccc52)C4)CCC3)CC1 [Compound 50, [3-chloro-5-[(7S)-4′-chloro-2-[[(2R,8S)-2-fluoro-1,2,3,5,6,7-hexahydropyrrolizin-8-yl]methoxy]spiro[5,8-dihydropyrano[4,3-d]pyrimidine-7,1′-indane]-4-yl]-4,6,7,8-tetrahydropyrazolo[1,5-a][1,4]diazepin-2-yl]-(4-methylpiperazin-1-yl)methanone]",10 to 100 µM
8,"CN(C)C(=O)c1nn2c(c1Cl)CN(c1nc(OC[C@@]34CCCN3C[C@H](F)C4)nc3c1CN(C)[C@@]1(CCc4c(F)cccc41)C3)CCC2 [Compound 65, 3-chloro-5-[(7S)-4′-fluoro-2-[[(2R,8S)-2-fluoro-1,2,3,5,6,7-hexahydropyrrolizin-8-yl]methoxy]-6-methyl-spiro[5,8-dihydropyrido[4,3-d]pyrimidine-7,1′-indane]-4-yl]-N,N-dimethyl-4,6,7,8-tetrahydropyrazolo[1,5-a][1,4]diazepine-2-carboxamide]",10 to 100 µM
9,"F[C@H]1CN2CCC[C@@]2(COc2nc3c(c(N4CCCCCC4)n2)COC2(CCc4c(Cl)cccc42)C3)C1 (stereo partly drawn) [Compound 1, 4′-(azepan-1-yl)-4-chloro-2′-(((2R,7aS)-2-fluorotetrahydro-1H-pyrrolizin-7a(5H)-yl)methoxy)-2,3,5′,8′-tetrahydrospiro[indene-1,7′-pyrano[4,3-d]pyrimidine]]",> 100 µM
10,"CN(C)C(=O)c1nn2c(c1Cl)CN(c1nc(OC[C@@]34CCCN3C[C@H](F)C4)nc3c1CN(C)[C@@]1(CCc4c(Cl)cccc41)C3)CCC2 [Compound 55, 3-chloro-5-((S)-4-chloro-2′-(((2R,7aS)-2-fluorotetrahydro-1H-pyrrolizin-7a(5H)-yl)methoxy)-6′-methyl-2,3,5′,8′-tetrahydro-6′H-spiro[indene-1,7′-pyrido[4,3-d]pyrimidin]-4′-yl)-N,N-dimethyl-5,6,7,8-tetrahydro-4H-pyrazolo[1,5-a][1,4]diazepine-2-carboxamide]",10 to 100 µM
11,"CN(C)C(=O)c1cc2n(n1)CCCN(c1nc(OC[C@@]34CCCN3C[C@H](F)C4)nc3c1CN(C)C1(CCCc4ccc(O)cc41)C3)C2 (stereo partly drawn) [Compound 39, 5-[7′-hydroxy-6-methyl-2-[[(2R,8S)-2-fluoro-1,2,3,5,6,7-hexahydropyrrolizin-8-yl]methoxy]spiro[5,8-dihydropyrido[4,3-d]pyrimidine-7,1′-tetralin]-4-yl]-N,N-dimethyl-4,6,7,8-tetrahydropyrazolo[1,5-a][1,4]diazepine-2-carboxamide]",> 100 µM
12,"C[C@@]1(NC#N)CCCN(c2nc(OC[C@@]34CCCN3C[C@H](F)C4)nc3c2COC2(CCc4c(Cl)cccc42)C3)C1 (stereo partly drawn) [Compound 46A, [(3R)-1-[(7*)-4′-chloro-2-[[(2R,8S)-2-fluoro-1,2,3,5,6,7-hexahydropyrrolizin-8-yl]methoxy]spiro[5,8-dihydropyrano[4,3-d]pyrimidine-7,1′-indane]-4-yl]-3-methyl-3-piperidyl]cyanamide; 2,2,2-trifluoroacetic acid]",10 to 100 µM
13,"CN1Cc2c(nc(OC[C@@]34CCCN3C[C@H](F)C4)nc2N2CCCn3nc(-c4nnnn4C)c(Cl)c3C2)C[C@]12CCCc1ccccc12 [Compound 99, (7S)-4-[3-chloro-2-(1-methyltetrazol-5-yl)-4,6,7,8-tetrahydropyrazolo[1,5-a][1,4]diazepin-5-yl]-2-[[(2R,8S)-2-fluoro-1,2,3,5,6,7-hexahydropyrrolizin-8-yl]methoxy]-6-methyl-spiro[5,8-dihydropyrido[4,3-d]pyrimidine-7,1′-tetralin]]",> 100 µM
14,"CN(C)C(=O)c1cc2n(n1)CCCN(c1nc(OC[C@@]34CCCN3C[C@H](F)C4)nc3c1CN(C)[C@@]1(CCCc4ccccc41)C3)C2 [Compound 72, 5-[(7S)-2-[[(2R,8S)-2-fluoro-1,2,3,5,6,7-hexahydropyrrolizin-8-yl]methoxy]-6-methyl-spiro[5,8-dihydropyrido[4,3-d]pyrimidine-7,1′-tetralin]-4-yl]-N,N-dimethyl-4,6,7,8-tetrahydropyrazolo[1,5-a][1,4]diazepine-2-carboxamide]",10 to 100 µM
